Key:
[1] = tested on: endotoxin from E. coli 055:B5; experiment: Limulus amoebocyte lysate assay (E-TOXATE), endotoxin neutralization; assay type: biochemical; settings: for Endotoxin Neutralization, % neutralization: 5.0 × 10^−6 M Peptide; for Endotoxin Neutralization, % neutralization / Endotoxin Neutralizing Activity, % neutralization: 0.02 U (0.2 pg) endotoxin from E. coli 055:B5; for Endotoxin Neutralizing Activity, % neutralization: 5.0 × 10^−5 M peptide
Protocol: The peptides were tested for their ability to neutralize endotoxin. Quantitative endotoxin activities for these peptides were measured by Limulus amoebocyte lysate assay.
Limulus amoebocyte lysate assay: The ability of synthetic peptides to neutralize endotoxin was detected with the E-TOXATE kit manufactured by Sigma Chemicals (St. Louis, Mo.). […] Peptide or B/PI was incubated with LPS at room temperature for 5 min in 100 ul of a 1:2 dilution of pyrogen-free saline (pH 6.4). The reaction was started by addition of 100 ul of amoebocyte lysate and the final volume was 200 ul. Assuming a 10,000 molecular weight for LPS, the approximate molar ration of B/PI:LPS at neutralization was 3000 to 1.
The peptides were tested according to the method provided above. […] BG38L was used as a positive control in these experiments.

P. aeruginosa = experiment: Bactericidal activity assay; assay type: cell-based, Pseudomonas aeruginosa type 1; settings: for Bactericidal Activity, % killing: 1.2 × 10^−7 M Peptide, 5 × 105 P. aeruginosa; for Bactericidal Activity, % killing at the effective dose: at the Ed for the same peptide; for Bactericidal Activity, Ed, Effective M dose: dose at which the % in brackets was found
Excerpt: Bacteria: P. aeruginosa type 1 is a clinical isolate maintained in the laboratory. The isolate remains a smooth strain and was serotyped by the scheme of Homma. The Pseudomonas strain was maintained by monthly transfer on blood agar plates.
The peptides can be assayed for bactericidal activity against a variety of organisms such as Pseudomonas aeruginosa type 1, P. cepacia ATCC 25608, E. coli B, and Staphylococcus aureus 502A by standard methods.
Pseudomonas aeruginosa type 1 is a clinical isolate. The isolate remains a smooth strain and was serotyped by the scheme of Homma (Jpn. J. Exp. Med. 46:329, 1976). A rough strain, E. coli B and S. aureus 502A were obtained from Paul Quie, University of Minnesota (Minneapolis, Minn.). The characteristics of the S. aureus strain have been described by Shinefield et al. (Amer. J. Dis. Chil. 105:646, 1963). Pseudomonas cepacia ATCC 25608 can be purchased from the ATCC. S. aureus and E. coli were maintained on nutrient agar plates and the Pseudomonas strains were maintained on blood agar plates.
Pyrogen-free solutions were used throughout the assay and all methods that follow. Log phase bacteria were prepared from a culture in brain heart infusion broth (Hovde et al. Infect. Immun. 54:142–148, 1986) and bacteria were washed and resuspended in saline with adjustment to an optical density at 650 nm to provide a yield of about 3×10^8 CFU/ml. Bacteria were diluted 1:10 in 0.08M citrate phosphate buffer, pH 5.6 or pH 7.0, for use in the assay. S. aureus rapidly lost viability in the pH 5.6 buffer and was studied only at pH 7.0. Bactericidal activity was determined by dose response over peptide concentrations ranging from about […] to about 4.1×10^−9M. Bactericidal activity was determined by dose response, preferably determining LD50 by linear regression.

[2] = Table 4, dose at which the % in brackets was found

Row | Molecule | Endotoxin Neutralization, % neutralization ([1]; Table 4) | Bactericidal Activity, % killing (P. aeruginosa) | Bactericidal Activity, % killing at the effective dose (P. aeruginosa) | Bactericidal Activity, Ed, Effective M dose (P. aeruginosa) [nM] | Endotoxin Neutralizing Activity, % neutralization ([1]; Table 3) | bactericidal activity (in words) (P. aeruginosa) | Endotoxin Neutralization, % at the effective dose ([1]; Table 4, at the Ed) [%] | Endotoxin Neutralization, Ed, Effective M dose [1, 2] [µM] | Endotoxin Neutralization, % at the effective dose ([1]; Table 3, at the ED printed in the same cell) [%] | Endotoxin neutralization, ED, Effective M dose ([1]; Table 3, dose at which the % in brackets was found) [µM] | approximate molar ratio B/PI:LPS at neutralization ([1]; assuming a 10,000 molecular weight for LPS)
1 | SIQDLNVSMKLFRKQAKWKIILKLNDGRELSLD [βpep-15] | 48.1 n = 1% | 0% | 23.9% | 960 |  |  |  |  |  |  | 
2 | SIQDLNVSMKLFRKQAKWKIIVKLNDGRELSLD [βpep-1] | 42.8, n = 3% | 32.0, n = 3% |  |  | 42.8, n = 3% | greatest bactericidal activity |  |  |  |  | 
3 | SIQDLNVSMKLFRKQAKWKINVKLNDGRELSLD [βpep-4] | 14.7, n = 3% | 37.6, n = 3% |  |  |  | greatest bactericidal activity |  |  |  |  | 
4 | SIQDLNLSMKLFRKQAKWKIIVKLNDGRELSLD [βpep-22] | 100% | 35.5, n = 3% |  |  |  | greatest bactericidal activity | 21.3 | 1.2 |  |  | 
5 | ANIKLSVEFKLFKRHLKWKIIFKLNDGREFSLD [βpep-13] | 100% | 0% | (19.8), n = 3% | 960 |  |  | 22.5 | 1.2 |  |  | 
6 | ANIKLSVEMKFFKRHLKWKIIVKLNDGRELSLD [βpep-12] | 100% | 0% | (49.1), n = 5% | 960 |  |  | 29.5 | 1.2 |  |  | 
7 | KFIVTLRVIKAGPHSPTAQIIVELKNGRKLSLD [βpep-5] | 70.3, n = 3% | 7.4, n = 7% |  |  | 70.3, n = 3% |  |  |  |  |  | 
8 | HIKELQVRWRAQKRFLRMSIIVKLNDGRELSLD [βpep-6] | 79.3, n = 3% | 8.2, n = 2% |  |  |  |  |  |  |  |  | 
9 | ANIKLSVEMKLFCRHLKCKIIVKLNDGRELSLD [βpep-10] | 100% | 0% | (20.9), n = 7% | 960 |  |  | 25.2 | 1.2 |  |  | 
10 | SIQDLKVSMKLFRKQAKWKIIVKLNDGRELSLD [βpep-18] | 100% | 18.8, n = 1% |  |  |  |  | 30.2 | 1.2 |  |  | 
11 | ANIKLSVEMKLFCY^DWKVCKHVKLNDGRELSLD [βpep-11] | 100% | 0% | (48.0), n = 4% | 960 | 100% |  | 29.5 | 1.2 | 29.5 | 1.2 | 
12 | HIKELQVKMKAQKRFLKWSIIVKLNDGRELSLD [βpep-7] | 77.7, n = 2% | 39.1, n = 2% |  |  |  | greatest bactericidal activity |  |  |  |  | 
13 | ANIKLSVKWKAQKRFLKMSIIVKLNDGRELSLD [βpep-9] | 100% | 0% | (47.4), n = 11% | 960 |  |  | 32.3 | 1.2 |  |  | 
14 | SIQDLNVSLKLFRKQAKWKIIVKLNDGRELSLD [βpep-21] | 100% | 13.0, n = 1% |  |  |  |  | 40.3 | 1.2 |  |  | 
15 | SIQDLNVSMKLFRKQAKWKILVKLNDGRELSLD [βpep-17] | 100% | 0% | 40.1% | 960 |  |  | 28.9 | 1.2 |  |  | 
16 | SIQKLNVSMKLFRKQAKWKIIVKLNDGRELSLD [βpep-19] | 0% | 62.5, n = 2% |  |  |  | greatest bactericidal activity | 12.4 | 16 |  |  | 
17 | ANIKLSVKWKAQKRFLKMSINVDLSDGRELSLD [βpep-2] | 55.3, n = 5% | 18.8, n = 6% |  |  |  |  |  |  |  |  | 
18 | SIQDLNVSMXLFRKQAKWKIIVKLNDGRELSLD [βpep-20] | 100% | 0% | 0.0% | 480 |  |  | 17.1 | 1.2 |  |  | 
19 | BG38: BG38L corresponds to amino acids 86–108 of B/PI; positive control (KISGKWKAQKRFLKMSGNFDLSI; UniProt P17213 117-139, looked up, fragment) [reference compound] |  |  |  |  | 34.4, n = 5% |  |  |  |  |  | 
20 | bactericidal/permeability increasing polypeptide (protein, UniProt P17213 32-487, looked up, purified in three column-chromatography steps) Bactericidal …: VNPGVVVRISQKGLDYASQQGTAALQKELKRIKIPDYSDSFKIKHLGKGHYSFYSMDIREFQLPSSQISMVPNVGLKFSISNANIKISGKWKAQKRFLKMSGNFDLSIEGMSISADLKLGSNPTSGKPTITCSSCSSHINSVHVHISKSKVGWLIQLFHKKIESALRNKMNSQVCEKVTNSVSSELQPYFQTLPVMTKIDSVAGINYGLVAPPATTAETLDVQMKGEFYSENHHNPPPFAPPVMEFPAAHDRMVYLGLSDYFFNTAGLVYQEAGVLKMTLRDDMIPKESKFRLTTKFFGTFLPEVAKKFPNMKIQIHVSASTPPHLSVQPTGLTFYPAVDVQAFAVLPNSSLASLFLIGMHTTGSMEVSAESNRLVGELKLDRLLLELKHSNIGPFPVELLQDIMNYIVPILVLPRVNEKLQKGFPLPTPARVQLYNVVLQPHQNFLLFGADVVYK |  |  |  |  |  |  |  |  |  |  | 3000 to 1
